From paper PMC10208040, “Computational docking and in vitro analysis identifies novel arylidene analogue FPMXY-14 against renal cancer cells by attenuating Akt” (Oncology Research, 2021)

Biological target: T1, Akt
T1 construct: gene AKT1
Experiment: Z'-LYTE fluorescence-based coupled-enzyme kinase assay
Type: biochemical

For `Cc1ccc(C)c2c1CC(=Cc1ccc(C(C)C)cc1)C2=O` [FPMXY-14, 2-(4-isopropyl-benzylidene)-4,7-dimethyl-indan-1-one], the IC50 was 148 nM.
